The subject of one assay is H1299 (lung). Nature of the assay: In vitro cytotoxic activity MTT assay, H1299. It is filed as cell-based. Conditions: Homo sapiens, NCI-H1299, 96 hours exposure, read-out: IC50, 50% inhibition of cell proliferation. As to the method: (§1) Compounds 1-16 were screened for their in vitro cytotoxic activity utilizing a 3-(4,5-dimethyl-thiazol-2-yl)-2,5-diphenyltetrazolium bromide (MTT) assay against selected cancer human cell lines consisting of PC3 (prostate), HCT116 (colon), A375 (melanoma), H1299 (lung), MIAPaCa-2 (pancreas), HL60 (leukemia), MCF7 (breast), MDA-MB-231 (breast) (T. Mosmann, J. Immunol. Meth., 1983, 65, 55-63). The cells were cultured at 37° C. in RMPI1640 medium supplemented with 10% fetal bovine serum, 50 IU/mL penicillin, and 50 μg/mL streptomycin in a 5% CO2 incubator. All cells were sub-cultured 3 times/week by trypsinisation. Viable cells were seeded and allowed to adhere for 12 h before a test drug was added in 96-well plates at an initial density of 1.0×10^5 cells/mL. Tumor cell lines were separately exposed to various concentrations of the tested compounds followed by incubation at a temperature of 37° C. during 96 h inside a medium of fresh RMPI 1640. Cells were subsequently incubated at 37° C. using MTT at 0.5 mg/mL during 4 h. After removal of supernatant, formazan crystals were dissolved in isopropanol and the optical density was measured at 570 nm. CX-4945 was used as a positive control.
Background: Tetrazolium assays rely on reduction of a dye to a coloured formazan, in cell work by metabolically active cells.

The next assay has as its system HL60 (leukemia). The experiment in a line: In vitro cytotoxic activity MTT assay, HL60. It is filed as cell-based. To be noted: Homo sapiens, HL-60, 96 hours exposure, read-out: IC50, 50% inhibition of cell proliferation. As to the method:
as §1

Another assay deals with HCT116 (colon). Nature of the assay: In vitro cytotoxic activity MTT assay, HCT116. It is filed as cell-based. To be noted: Homo sapiens, HCT-116, 96 hours exposure, read-out: IC50, 50% inhibition of cell proliferation. Here is the method: as §1
The next assay has as its system A375 (melanoma). The experiment in a line: In vitro cytotoxic activity MTT assay, A375. It is filed as cell-based. Conditions: Homo sapiens, A-375, 96 hours exposure, read-out: IC50, 50% inhibition of cell proliferation. As to the method:
as §1

The next assay deals with PC3 (prostate). The experiment in a line: In vitro cytotoxic activity MTT assay, PC3. It is filed as cell-based. Conditions: Homo sapiens, 96 hours exposure, read-out: IC50, 50% inhibition of cell proliferation. As to the method:
as §1

Another assay concerns MCF7 (breast). The experiment in a line: In vitro cytotoxic activity MTT assay, MCF7. It is filed as cell-based. To be noted: Homo sapiens, 96 hours exposure, read-out: IC50, 50% inhibition of cell proliferation. Here is the method:
as §1

For assay [1], the target named is T1, recombinant human CK2 (RRββ-holoenzyme) (Homo sapiens, UniProt P68400).
T1 construct: purchased Millipore
T1 sequence (P68400 whole entry): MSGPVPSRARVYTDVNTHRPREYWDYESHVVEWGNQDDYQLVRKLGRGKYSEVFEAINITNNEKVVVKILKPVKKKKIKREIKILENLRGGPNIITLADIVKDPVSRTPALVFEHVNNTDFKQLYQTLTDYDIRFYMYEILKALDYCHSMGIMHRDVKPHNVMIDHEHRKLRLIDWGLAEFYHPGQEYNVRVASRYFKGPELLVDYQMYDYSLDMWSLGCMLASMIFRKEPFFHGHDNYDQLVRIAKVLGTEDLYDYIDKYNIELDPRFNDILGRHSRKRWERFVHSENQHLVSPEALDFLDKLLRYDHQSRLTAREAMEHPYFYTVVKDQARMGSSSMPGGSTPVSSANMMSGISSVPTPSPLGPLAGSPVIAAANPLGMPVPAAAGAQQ
T1 sequence (P67870 whole entry partner): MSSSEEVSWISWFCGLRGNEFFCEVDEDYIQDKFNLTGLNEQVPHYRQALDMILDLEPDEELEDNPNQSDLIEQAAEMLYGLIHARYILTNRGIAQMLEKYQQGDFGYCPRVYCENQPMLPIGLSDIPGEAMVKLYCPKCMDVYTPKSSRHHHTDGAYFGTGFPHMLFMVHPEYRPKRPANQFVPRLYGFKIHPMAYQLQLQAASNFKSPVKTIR
Nature of the assay: CK2 Kinase Assay (33P-ATP, filter plate). To be noted: final ATP concentration 15 μM, 10 min at 30° C.; read-out: protein kinase CK2 IC50. It is filed as biochemical. As to the method:
CK2 Kinase Assay was conducted using the protocol as described in Pierre F. et al; J. Med. Chem. 2011, 54, 635-654. The tested compounds in aqueous solution were added at a volume of 10 μL to a reaction mixture comprising 10 μL of assay dilution buffer (ADB; 20 mM MOPS, pH 7.2, 25 mM β-glycerol phosphate, 5 mM EGTA, 1 mM sodium orthovanadate, and 1 mM dithiothreitol), 10 μL of substrate peptide (RRRDDDSDDD, dissolved in ADB at a concentration of 1 mM), 10 μL of recombinant human CK2 (RRββ-holoenzyme, 25 ng dissolved in ADB; Millipore). Reactions were initiated by the addition of 10 μL of ATP solution (90% 75 mMMgCl2, 75 μM ATP (final ATP concentration: 15 μM) dissolved in ADB; 10% [γ-33P] ATP (stock 1mCi/100 μL; 3000 Ci/mmol (Perkin-Elmer) and maintained for 10 min at 30° C. The reactions were quenched with 100 μL of 0.75% phosphoric acid and then transferred to and filtered through a phosphor cellulose filter plate (Millipore). After washing each well five times with 0.75% phosphoric acid, the plate was dried under vacuum for 5 min and, following the addition of 15 μL of scintillation fluid to each well, the residual radioactivity was measured using a Wallac […]. The IC50 values were derived from eight concentrations of test inhibitors.

The subject of a further assay is MDA-MB-231 (breast). Nature of the assay: In vitro cytotoxic activity MTT assay, MDA-MB-231. It is filed as cell-based. Conditions: Homo sapiens, 96 hours exposure, read-out: IC50, 50% inhibition of cell proliferation. Here is the method: as §1
The subject of another assay is MIAPaCa-2 (pancreas). Nature of the assay: In vitro cytotoxic activity MTT assay, MIAPaCa-2. It is filed as cell-based. Conditions: Homo sapiens, MIA PaCa-2, 96 hours exposure, read-out: IC50, 50% inhibition of cell proliferation. As to the method: as §1

For `O=C(O)c1cc2c(Nc3cccc(Cl)c3)nc3cnccc3c2[nH]1` [Example 1, 4-((3-chlorophenyl)amino)-1H-pyrrolo[3,2-c][1,7]naphthyridine-2-carboxylic acid], the IC50 in the assay with H1299 (lung) is 1.6 µM; in the assay with HL60 (leukemia), 2 µM; with HCT116 (colon), 1.1 µM; in the assay with A375 (melanoma), 3.2 µM; in the assay with PC3 (prostate), 2.3 µM; in the assay on MCF7 (breast) it was 3.9 µM. Also, the results for the IC50 (in assay [1]; in the assay on MDA-MB-231 (breast); in the assay with MIAPaCa-2 (pancreas)) were 0.031 µM, 3.5 µM and 1.4 µM, respectively.
